1 compound from ChEMBL document CHEMBL1147813, “Design, molecular modeling, synthesis, and anti-HIV-1 activity of new indolyl aryl sulfones. Novel derivatives of the indole-2-carboxamide” (J Med Chem, 2006) can be followed below.

The test system of assay [1] is Lymphocyte. Briefly: Cytotoxicity against human lymphocytes. The format is functional. Particulars: read-out: TC50 (the source's name).
Assay [2] relates to Human immunodeficiency virus 1. Briefly: Activity against HIV1 3B assessed by inhibition of p24 production in human lymphocytes. The class given is functional, organism-based. Particulars: Human immunodeficiency virus 1, 3B.
Assay [3] concerns Human immunodeficiency virus. Nature of the assay: Activity against HIV-112 assessed by inhibition of p24 production in human lymphocytes. Particulars: Human immunodeficiency virus 1. The format is functional, organism-based.
In assay [4] the test system is Human immunodeficiency virus. Briefly: Activity against HIV-AB1 assessed by inhibition of p24 production in human lymphocytes. The class given is functional, organism-based. Particulars: Human immunodeficiency virus 1.
The subject of assay [5] is Lymphocyte. Nature of the assay: Selectivity index, TC50 for human lymphocytes/EC50 for HIV1 3B. The class given is functional.
Assay [6] deals with Lymphocyte. Nature of the assay: Selectivity index, TC50 for human lymphocytes/EC50 for HIV-112. The class given is functional.
Assay [7] has as its system Lymphocyte. Nature of the assay: Selectivity index, TC50 for human lymphocytes/EC50 for HIV-AB1. The class given is functional.
The test system of assay [8] is Macrophage. Briefly: Cytotoxicity against human macrophages. Particulars: read-out: TC50 (the source's name). The format is functional.
For assay [9], the system named is Human immunodeficiency virus 1. Briefly: Antiviral activity against HIV1 […] in human macrophages. The format is functional, organism-based.
The subject of assay [10] is Macrophage. Briefly: Selectivity index, TC50 for human macrophages/EC50 for HIV1 […]. The format is functional.
Assay [11] relates to MT4. Nature of the assay: Cytotoxicity against MT4 cell line by MTT assay. The class given is functional. Particulars: Homo sapiens, read-out: TC50 (the source's name). A general note: Tetrazolium assays rely on reduction of a dye to a coloured formazan, in cell work by metabolically active cells.
Assay [12] deals with Human immunodeficiency virus 1. Briefly: Antiviral activity against HIV1 in MT4 cell line. The format is functional, organism-based. Particulars: Human immunodeficiency virus 1, MT4.
Assay [13] has as its system MT4. Nature of the assay: Selectivity index, TC50 for MT4 cell line/EC50 for HIV1. The format is functional.
Assay [14] concerns C8166. Briefly: Antiproliferative activity against C8166 cell line by MTT assay. The class given is functional. Particulars: Homo sapiens, read-out: TC50 (the source's name).
Assay [15] deals with Human immunodeficiency virus 1. Briefly: Antiviral activity against HIV1 in C8166 cell line. The format is functional, organism-based. Particulars: Human immunodeficiency virus 1, C8166.
The test system of assay [16] is C8166. Nature of the assay: Selectivity index, TC50 for C8166 cell line/EC50 for HIV1. The format is functional.
Assay [17] concerns Human immunodeficiency virus 1. Nature of the assay: Antiviral activity against HIV1 3B in MT4 cell line. The format is functional, organism-based. Particulars: Human immunodeficiency virus 1, 3B.
In assay [18] the test system is Human immunodeficiency virus 1. Briefly: Antiviral activity against HIV1 Y181C mutant in MT4 cell line. Particulars: Human immunodeficiency virus 1, MT4. The class given is functional, organism-based.
The test system of assay [19] is Human immunodeficiency virus 1. Nature of the assay: Antiviral activity against HIV1 K103N-Y181C mutant in MT4 cell line. The format is functional, organism-based. Particulars: Human immunodeficiency virus 1, MT4.

Broadly, the EC50 is the concentration giving half of the maximal effect.

On to `Cc1cc(C)cc(S(=O)(=O)c2c(C(=O)NNC(=O)NN)[nH]c3ccc(Cl)cc23)c1`, for which the CC50 in assay [1], in assay [8], in assay [11] and in assay [14] was greater than 100000 nM throughout. The EC50 was 30 nM in [2]; 50 nM in assay [3]; 40 nM in assay [4]; 9 nM in assay [9]; 10 nM in assay [12] (read-out: EC50); 10 nM in [12] (read-out: Log EC50 (converted)). In addition, the EC50 is 8 nM in [15], 40 nM in [17], 20 nM in assay [18] and 5700 nM in [19]. In addition, the Selectivity index is greater than 3333 in assay [5]; greater than 2000 in assay [6]; greater than 2500 in assay [7]; greater than 11111 in assay [10]; greater than 10000 in assay [13]; greater than 12500 in assay [16].
